According to patent publication EP3800188A1, “SUBSTITUTED PYRAZOLOPYRIMIDINES AS IRAK4 INHIBITORS” (Bayer AG, priority 2019, dated 2021):

Molecular target: T1, human IRAK4 (Homo sapiens, UniProt Q9NWZ3)
T1 construct: GST (N); made in house; host or cells: baculovirus-infected Hi5 (BTI-TN-5B1-4) insect cells
T1 sequence (Q9NWZ3 1-460): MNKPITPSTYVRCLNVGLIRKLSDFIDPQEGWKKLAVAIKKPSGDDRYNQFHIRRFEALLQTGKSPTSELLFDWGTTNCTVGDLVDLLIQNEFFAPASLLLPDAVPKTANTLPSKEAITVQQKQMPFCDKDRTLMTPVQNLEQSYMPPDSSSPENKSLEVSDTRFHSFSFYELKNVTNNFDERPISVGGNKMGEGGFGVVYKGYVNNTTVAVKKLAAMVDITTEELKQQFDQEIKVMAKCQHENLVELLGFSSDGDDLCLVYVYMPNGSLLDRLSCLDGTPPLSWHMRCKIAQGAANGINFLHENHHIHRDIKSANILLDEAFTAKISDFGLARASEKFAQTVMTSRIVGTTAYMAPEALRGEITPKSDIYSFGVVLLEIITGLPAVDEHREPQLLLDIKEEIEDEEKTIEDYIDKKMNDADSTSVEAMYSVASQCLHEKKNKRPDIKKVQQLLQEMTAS
Assay: Human IRAK4 kinase activity inhibition assay (IRAK4 TR-FRET assay)
Format: biochemical
Details: 1 mM ATP, GST-human IRAK4, average or median values
Experimental: The IRAK4-inhibitory activity of the inventive substances was measured in the IRAK4 TR-FRET assay (TR-FRET = Time Resolved Fluorescence Resonance Energy Transfer) described hereinafter.
Recombinant fusion protein from N-terminal GST (glutathione S-transferase) and human IRAK4, expressed in baculovirus-infected insect cells (Hi5, BTI-TN-5B1-4, cell line purchased from Invitrogen, catalogue No. B855-02) and purified via affinity chromatography, was used as enzyme. The substrate used for the kinase reaction was the biotinylated peptide biotin-Ahx-[…] (C-terminus in amide form) which can be purchased, for example, from Biosyntan GmbH (Berlin-Buch). For the assay, 11 different concentrations in the range from 20 µM to 0.073 nM were prepared from a 2 mM DMSO solution of the test substance. 50 nl of the respective 100fold concentrated test compound solutions in DMSO were pipetted into a black low-volume 384-well microtitre plate or a black 1536-well microtiter plate (both Greiner Bio-One, Frickenhausen, Germany), 2 µl of a solution of IRAK4 in assay buffer [50 mM HEPES pH 7.5, 5mM MgCl2, 1.0 mM dithiothreitol, 30 µM activated sodium orthovanadate, 0.1% (w/v) of bovine gamma-globulin (BGG) 0.04% (v/v) nonidet-P40 (Sigma)] were added and the mixture was incubated for 15 min to allow prebinding of the substances to the enzyme prior to the kinase reaction. […] The concentration of the IRAK4 was adjusted to the respective activity of the enzyme and set such that the assay was carried out in the linear range. Typical concentrations were in the order of about 0.2 nM. The reaction was stopped by addition of 5 µl of a solution of TR-FRET detection reagents [0.1 µM streptavidin-XL665 (Cisbio Bioassays; France, catalogue No. 610SAXLG)] and 1.5 nM anti-phosphoserine antibody [Merck Millipore, "STK Antibody", catalogue No. 35-002] and 0.6 nM LANCE EU-W1024-labelled anti-mouse-IgG antibody (Perkin-Elmer, product No. AD0077; alternatively, it is possible to use a terbium cryptate-labelled anti-mouse-IgG antibody from Cisbio Bioassays) in aqueous EDTA solution (100 mM EDTA, 0.4 % [w/v] bovine serum albumin [BSA] in 25 mM HEPES pH 7.5). The resulting mixture was incubated at 22°C for 1 h to allow formation of a complex of the biotinylated phosphorylated substrate and the detection reagents. The amount of the phosphorylated substrate was then evaluated by measuring the resonance energy transfer from europium chelate-labelled anti-mouse-IgG antibody to streptavidin-XL665. To this end, the fluorescence emissions at 620 nm and 665 nm were measured after excitation at 350 nm in a TR-FRET measuring instrument, for example a Rubystar (BMG Labtechnologies, Offenburg, Germany) or a Viewlux (Perkin-Elmer). The ratio of the emissions at 665 nm and 622 nm was taken as a measure of the amount of phosphorylated substrate. The data were normalized (enzyme reaction without test substance = 0% inhibition; all other assay components but no enzyme = 100% inhibition).

Compound | IC50
O=C1C[C@H](Nc2nc(N3C[C@H](O)[C@@H](O)C3)c3cnn(-c4cccc(C(F)(F)F)c4)c3n2)CN1 [Example I-20-2, (4S)-4-({4-[(3S,4S)-3,4-dihydroxypyrrolidin-1-yl]-1-[3-(trifluoromethyl)phenyl]-1H-pyrazolo[3,4-d]pyrimidin-6-yl}amino)pyrrolidin-2-one] | 14.9 nM
O=C1C[C@H](Nc2nc(N3CC[C@@H](N4CCOCC4)C3)c3cnn(-c4cccc(C(F)(F)F)c4)c3n2)CN1 [Example I-21, (4S)-4-({4-[(3R)-3-(morpholin-4-yl)pyrrolidin-1-yl]-1-[3-(trifluoromethyl)phenyl]-1H-pyrazolo[3,4-d]pyrimidin-6-yl}amino)pyrrolidin-2-one] | 78 nM
CC(C)(O)CC1CCN(c2nc(N[C@@H]3CNC(=O)C3)nc3c2cnn3-c2cccc(C(F)(F)F)c2)CC1 [Example I-24, (4S)-4-({4-[4-(2-hydroxy-2-methylpropyl)piperidin-1-yl]-1-[3-(trifluoromethyl)phenyl]-1H-pyrazolo[3,4-d]pyrimidin-6-yl}amino)pyrrolidin-2-one] | 7.08 nM
CN1CC[C@@H](Nc2nc(N3CCC(CC(C)(C)O)CC3)c3cnn(-c4cccc(C(F)(F)F)c4)c3n2)C1 [Example I-25-1, 2-methyl-1-[1-(6-{[(3R)-1-methylpyrrolidin-3-yl]amino}-1-[3-(trifluoromethyl)phenyl]-1H-pyrazolo[3,4-d]pyrimidin-4-yl)piperidin-4-yl]propan-2-ol] | 40.3 nM
CN1CC[C@H](Nc2nc(N3CCC(CC(C)(C)O)CC3)c3cnn(-c4cccc(C(F)(F)F)c4)c3n2)C1 [Example I-25-2, 2-methyl-1-[1-(6-{[(3S)-1-methylpyrrolidin-3-yl]amino}-1-[3-(trifluoromethyl)phenyl]-1H-pyrazolo[3,4-d]pyrimidin-4-yl)piperidin-4-yl]propan-2-ol] | 12 nM
O=S1(=O)CCN(C2CN(c3nc(N[C@@H]4CCOC4)nc4c3cnn4-c3cccc(C(F)(F)F)c3)C2)CC1 [Example I-26-1, 4-[3-(1,1-dioxidothiomorpholin-4-yl)azetidin-1-yl]-N-[(3R)-tetrahydrofuran-3-yl]-1-[3-(trifluoromethyl)phenyl]-1H-pyrazolo[3,4-d]pyrimidin-6-amine] | 37.3 nM
O=S1(=O)CCN(C2CN(c3nc(N[C@H]4CCOC4)nc4c3cnn4-c3cccc(C(F)(F)F)c3)C2)CC1 [Example I-26-2, 4-[3-(1,1-dioxidothiomorpholin-4-yl)azetidin-1-yl]-N-[(3S)-tetrahydrofuran-3-yl]-1-[3-(trifluoromethyl)phenyl]-1H-pyrazolo[3,4-d]pyrimidin-6-amine] | 57.8 nM
O=C1C[C@H](Nc2nc(N3CCOCC3)c3cnn(-c4cccc(C(F)(F)F)c4)c3n2)CN1 [Example I-28, (4S)-4-({4-(morpholin-4-yl)-1-[3-(trifluoromethyl)phenyl]-1H-pyrazolo[3,4-d]pyrimidin-6-yl}amino)pyrrolidin-2-one] | 23.9 nM
O=C1C[C@H](Nc2nc(N3CC(O)C3)c3cnn(-c4cccc(C(F)(F)F)c4)c3n2)CN1 [Example I-32, (4S)-4-({4-(3-hydroxyazetidin-1-yl)-1-[3-(trifluoromethyl)phenyl]-1H-pyrazolo[3,4-d]pyrimidin-6-yl}amino)pyrrolidin-2-one] | 28.7 nM
O=S1(=O)CC[C@H](Nc2nc(N3CCC(N4CCOCC4)CC3)c3cnn(-c4cccc(C(F)(F)F)c4)c3n2)C1 [Example I-33, N-[(3S)-1,1-dioxidotetrahydrothiophen-3-yl]-4-[4-(morpholin-4-yl)piperidin-1-yl]-1-[3-(trifluoromethyl)phenyl]-1H-pyrazolo[3,4-d]pyrimidin-6-amine] | 84.2 nM
O=S1(=O)CC[C@H](Nc2nc(N3CC(N4CCOCC4)C3)c3cnn(-c4cccc(C(F)(F)F)c4)c3n2)C1 [Example I-34, N-[(3S)-1,1-dioxidotetrahydrothiophen-3-yl]-4-[3-(morpholin-4-yl)azetidin-1-yl]-1-[3-(trifluoromethyl)phenyl]-1H-pyrazolo[3,4-d]pyrimidin-6-amine] | 85.1 nM
